The test system of one data set is arachidonic acid release. The conditions noted are these: cited from earlier work.
The next data set has as its target T1, 5-LO (Homo sapiens, UniProt P09917).
T1 sequence (P09917 1-674): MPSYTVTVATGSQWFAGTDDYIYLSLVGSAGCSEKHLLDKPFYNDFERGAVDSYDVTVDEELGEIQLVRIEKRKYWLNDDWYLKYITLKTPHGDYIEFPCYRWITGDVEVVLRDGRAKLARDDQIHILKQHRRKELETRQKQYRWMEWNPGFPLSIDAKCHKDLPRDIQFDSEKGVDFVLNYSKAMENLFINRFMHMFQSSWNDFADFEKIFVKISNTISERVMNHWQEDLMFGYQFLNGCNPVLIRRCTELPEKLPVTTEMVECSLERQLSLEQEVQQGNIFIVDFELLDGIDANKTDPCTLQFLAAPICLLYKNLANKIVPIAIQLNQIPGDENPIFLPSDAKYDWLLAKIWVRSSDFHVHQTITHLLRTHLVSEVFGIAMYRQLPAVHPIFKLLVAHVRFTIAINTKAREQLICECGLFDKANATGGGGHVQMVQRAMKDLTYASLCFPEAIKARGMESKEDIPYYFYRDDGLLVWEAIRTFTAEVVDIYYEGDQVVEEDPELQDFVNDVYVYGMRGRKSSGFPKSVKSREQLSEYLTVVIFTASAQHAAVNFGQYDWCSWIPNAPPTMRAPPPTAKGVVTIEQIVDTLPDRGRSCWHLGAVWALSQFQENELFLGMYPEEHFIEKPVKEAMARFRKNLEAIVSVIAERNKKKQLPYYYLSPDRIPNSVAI
The data set is described as follows: Biosynthesis of 5-LO products in HEK293 cells expressing 5-LO and FLAP (A23187 + arachidonic acid). On the set-up: expressed in transfected cells; host or cells: HEK293. As to conditions: 1 μM compound, 10 μM A23187 + 10 μM arachidonic acid, 15 min. The data set is classed as cell-based. On the procedure:
HEK293 cells expressing both 5-LO and the 5-lipoxygenase activating protein (FLAP) were generated as previously reported. For cell stimulation of 5-LO products, transfected HEK293 cells were collected following trypsinization and washed and the cell pellet was resuspended in Hank's balanced salt solution (HBSS, Lonza) containing 1.6 mM CaCl2 at a concentration of 5 × 10^5 cells/ml. Cells were preincubated with each compound at the indicated concentration for 5 min at 37°C. Cells were then stimulated for 15 minutes at 37°C with the addition of 10 μM calcium ionophore A23187 (Sigma-Aldrich) and 10 μM arachidonic acid (Cayman Chemical). Stimulations were stopped by adding 0.5 volume of cold MeOH:MeCN (1 : 1) containing 100 ng/ml of 19-OH prostaglandin B2 (PGB2) as internal standard. Samples were then processed and 5-LO products were analyzed by reversed-phase high-performance liquid chromatography (RP-HPLC) as described previously.
To evaluate CAPE analogues as potential inhibitors of the biosynthesis of 5-LO products, a first series of experiments was performed in HEK293 cells expressing both 5-LO and FLAP as previously described. HEK293 cells were first preincubated with the test compounds (1 μM), then stimulated in the presence of arachidonic acid and calcium ionophore A23187 to induce the biosynthesis of 5-LO products (Figure 2(a)). […] Based on these criteria, compounds 9, 13, 14, 15, 16, and 19 were selected for subsequent analyses.
Figure 2 Effect of the test compounds on the biosynthesis of 5-LO products in transfected HEK293 cells (a) and thapsigargin-stimulated PMNL (b). (a) HEK293 cells expressing both 5-LO and FLAP were incubated in presence of the indicated compounds (1 μM) or their diluent (control, 0.5% DMSO) for 5 min, then biosynthesis of 5-LO products was initiated with the addition of 10 μM calcium ionophore A23187 and 10 μM arachidonic acid for 15 min. After stimulation, reactions were stopped and samples were processed for analysis of 5-LO products by RP-HPLC. Total 5-LO products measured represent the sum of LTB4, its trans isomers, and 5-hydroxyeicosatetraenoic acid. (b) Freshly isolated human PMNL were incubated in presence of test compounds (or their diluent control, DMSO 0.5%) at the indicated concentrations for 5 min. Biosynthesis of the 5-LO products was initiated with the addition of 1 μM of thapsigargin, followed by a 15 min incubation period at 37°C. The stimulation was then stopped and samples were processed for RP-HPLC analysis and total 5-LO products quantification. Total 5-LO products measured represent the sum of LTB4, its trans isomers, 20-COOH- and 20-OH-LTB4 and 5-hydroxyeicosatetraenoic acid. Data are expressed as means ± SEM of at least 3 independent experiments. ^∗Different from control, as determined by one-way ANOVA with Dunnett's multiple comparison test (p < 0.05).

For the next data set, the system named is PMNL. The data set is described as follows: Annexin V labelling of PMNL (early apoptosis). The data set is classed as cell-based, human. As to conditions: 20 min incubation at 37°C. An excerpt: A positive control with 10% EtOH is shown to validate the assay.

“Also recorded” adds a separate entry of the source.

Regarding `O=C(/C=C/c1ccc(O)c(O)c1)OCCc1ccccc1` [CAPE (2), Caffeic acid phenethyl ester, reference compound], the “Inhibition of liberation of cellular arachidonic acid (previously shown)” value in the data set with arachidonic acid release is “previously shown to inhibit the liberation of cellular arachidonic acid”. Moreover, the “Inhibition of biosynthesis of 5-LO products in transfected HEK293 cells” value (from here on “Inhibition … in transfected HEK293 cells”) at 5-LO is listed as “significantly inhibited the biosynthesis of 5-LO products”.

For `C=C(C)CCOC(=O)/C=C/c1ccc(O)c(O)c1` [Compound 9], the “Inhibition … in transfected HEK293 cells” value at 5-LO was “showed similar or better inhibitory activity than the reference compound CAPE (2), or decreased the biosynthesis of 5-LO products by more than 50%; also recorded: best inhibitory activity amongst the compounds from the aliphatic series”.

As for `O=C(/C=C/c1ccc(O)c(O)c1)OCCCc1ccccc1` [Compound 13], the “Induction of early apoptosis of PMNL (annexin V labelling)” value in the data set on PMNL is reported as “did not induce early apoptosis of PMNL”. The “Inhibition … in transfected HEK293 cells” value at 5-LO is given as “showed similar or better inhibitory activity than the reference compound CAPE (2), or decreased the biosynthesis of 5-LO products by more than 50%”.

`O=C(/C=C/c1ccc(O)c(O)c1)OCCc1ccc(F)cc1` [Compound 14]: the “Inhibition … in transfected HEK293 cells” value at 5-LO is given as “showed similar or better inhibitory activity than the reference compound CAPE (2), or decreased the biosynthesis of 5-LO products by more than 50%”.

For `Cc1ccc(CCOC(=O)/C=C/c2ccc(O)c(O)c2)cc1` [Compound 15], the “Inhibition … in transfected HEK293 cells” value at 5-LO is given as “showed similar or better inhibitory activity than the reference compound CAPE (2), or decreased the biosynthesis of 5-LO products by more than 50%”.

As for `COc1ccc(CCOC(=O)/C=C/c2ccc(O)c(O)c2)cc1` [Compound 16], the “Inhibition … in transfected HEK293 cells” value on 5-LO was “showed similar or better inhibitory activity than the reference compound CAPE (2), or decreased the biosynthesis of 5-LO products by more than 50%”.

For the compound `O=C(/C=C/c1ccc(O)c(O)c1)OCC(c1ccccc1)c1ccccc1` [Compound 19], on 5-LO, the “Inhibition … in transfected HEK293 cells” value is recorded as “showed similar or better inhibitory activity than the reference compound CAPE (2), or decreased the biosynthesis of 5-LO products by more than 50%”.

The values are drawn from article PMC5478869, “New Hydroxycinnamic Acid Esters as Novel 5-Lipoxygenase Inhibitors That Affect Leukotriene Biosynthesis” (Mediators of Inflammation, 2017).
